Assay results from patent US12077503B2, “Substituted cyclic amides and their use as herbicides” (FMC CORPORATION, priority 2015, dated 2024).

Assays:
Type in all cases: in vivo
[1] = system: velvetleaf (Abutilon theophrasti); test: Test G Post-Emergence Protocol; conditions: Abutilon theophrasti, post-emergence, 312 h; for pest or weed control at 15.625 g/ha: 15.625 g ai/ha, evaluated after 13 days (100=total damage to plant; 0=no damage to plant), read-out: Velvetleaf damage rating; for pest or weed control at 62.5 g/ha: 62.5 g ai/ha, read-out: Velvetleaf damage rating (100=total damage to plant; 0=no damage to plant); for pest or weed control at 62.5 g/ha / pest or weed control at 250 g/ha: evaluated after 13 days; for pest or weed control at 250 g/ha: 250 g ai/ha, read-out: damage to plant, Velvetleaf (100=total damage to plant; 0=no damage to plant)
Outline: (§1)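 Foliar application was made 8 days after sowing, using an aqueous spray of the active in acetone/water (50:50) with 0.5% Tween 20, at doses of 15.625, 62.5 or 250 g/ha. Injury was assessed 13 days later, where 100 meant the plant was fully damaged.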

[2] = system: barnyardgrass (Echinochloa crus-galli); test: Test G Post-Emergence Protocol; conditions: Echinochloa crus-galli, post-emergence, 312 h; for pest or weed control at 15.625 g/ha: 15.625 g ai/ha, evaluated after 13 days (100=total damage to plant; 0=no damage to plant), read-out: Barnyardgrass damage rating; for pest or weed control at 62.5 g/ha: 62.5 g ai/ha, read-out: Barnyardgrass damage rating (100=total damage to plant; 0=no damage to plant); for pest or weed control at 62.5 g/ha / pest or weed control at 250 g/ha: evaluated after 13 days; for pest or weed control at 250 g/ha: 250 g ai/ha, read-out: damage to plant, Barnyardgrass (100=total damage to plant; 0=no damage to plant)
Outline: as §1

[3] = system: giant foxtail (Setaria faberi); test: Test G Post-Emergence Protocol; conditions: Setaria faberi, post-emergence, 312 h; for pest or weed control at 15.625 g/ha: 15.625 g ai/ha, evaluated after 13 days (100=total damage to plant; 0=no damage to plant), read-out: Foxtail, Giant damage rating; for pest or weed control at 62.5 g/ha: 62.5 g ai/ha, read-out: Foxtail, Giant damage rating (100=total damage to plant; 0=no damage to plant); for pest or weed control at 62.5 g/ha / pest or weed control at 250 g/ha: evaluated after 13 days; for pest or weed control at 250 g/ha: 250 g ai/ha, read-out: damage to plant, Foxtail, Giant (100=total damage to plant; 0=no damage to plant)
Outline: as §1

[4] = system: corn (Zea mays); test: Test G Post-Emergence Protocol; conditions: Zea mays, post-emergence, 312 h; for plant injury at 15.625 g/ha: 15.625 g ai/ha, evaluated after 13 days (100=total damage to plant; 0=no damage to plant), read-out: Corn damage rating; for plant injury at 62.5 g/ha: 62.5 g ai/ha, read-out: Corn damage rating (100=total damage to plant; 0=no damage to plant); for plant injury at 62.5 g/ha / plant injury at 250 g/ha: evaluated after 13 days; for plant injury at 250 g/ha: 250 g ai/ha, read-out: damage to plant, Corn (100=total damage to plant; 0=no damage to plant)
Outline: as §1

[5] = system: redroot pigweed (Amaranthus retroflexus); test: Test G Post-Emergence Protocol; conditions: Amaranthus retroflexus, post-emergence, 312 h; for pest or weed control at 15.625 g/ha: 15.625 g ai/ha, evaluated after 13 days (100=total damage to plant; 0=no damage to plant), read-out: Pigweed, Redroot damage rating; for pest or weed control at 62.5 g/ha: 62.5 g ai/ha, read-out: Pigweed, Redroot damage rating (100=total damage to plant; 0=no damage to plant); for pest or weed control at 62.5 g/ha / pest or weed control at 250 g/ha: evaluated after 13 days; for pest or weed control at 250 g/ha: 250 g ai/ha, read-out: damage to plant, Pigweed, Redroot (100=total damage to plant; 0=no damage to plant)
Outline: as §1

[6] = system: ivy-leaved morning glory (Ipomoea hederacea); test: Test G Post-Emergence Protocol; conditions: Ipomoea, post-emergence, 312 h; for pest or weed control at 15.625 g/ha: 15.625 g ai/ha, evaluated after 13 days (100=total damage to plant; 0=no damage to plant), read-out: Morningglory, Ivy-leaved damage rating; for pest or weed control at 62.5 g/ha: 62.5 g ai/ha, read-out: Morningglory, Ivy-leaved damage rating (100=total damage to plant; 0=no damage to plant); for pest or weed control at 62.5 g/ha / pest or weed control at 250 g/ha: evaluated after 13 days; for pest or weed control at 250 g/ha: 250 g ai/ha, read-out: damage to plant, Morningglory, Ivy-leaved (100=total damage to plant; 0=no damage to plant)
Outline: as §1

[7] = system: velvetleaf (Abutilon theophrasti); test: Test G Pre-Emergence Protocol; conditions: Abutilon theophrasti, pre-emergence, 312 h, evaluated after 13 days; for pest or weed control at 15.625 g/ha: 15.625 g ai/ha; for pest or weed control at 15.625 g/ha / pest or weed control at 250 g/ha: read-out: Velvetleaf damage rating (100=total damage to plant; 0=no damage to plant); for pest or weed control at 62.5 g/ha: 62.5 g ai/ha, 100=total damage to plant, 0=no damage to plant, read-out: plant damage rating, Velvetleaf; for pest or weed control at 250 g/ha: 250 g ai/ha
Outline: (§2)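 Pre-emergence spray, 15.625/62.5/250 g/ha, vehicle acetone:water 50:50 + 0.5% Tween 20, applied 1 d after sowing. Glasshouse 24/16° C, 14 h light, 65% RH, watered twice daily. Visual damage rating at 13 d, 0–100 scale.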

[8] = system: barnyardgrass (Echinochloa crus-galli); test: Test G Pre-Emergence Protocol; conditions: Echinochloa crus-galli, pre-emergence, 312 h, evaluated after 13 days; for pest or weed control at 15.625 g/ha: 15.625 g ai/ha, read-out: Barnyard grass damage rating (100=total damage to plant; 0=no damage to plant); for pest or weed control at 62.5 g/ha: 62.5 g ai/ha, 100=total damage to plant, 0=no damage to plant, read-out: plant damage rating, Barnyardgrass; for pest or weed control at 250 g/ha: 250 g ai/ha, read-out: Barnyardgrass damage rating (100=total damage to plant; 0=no damage to plant)
Outline: as §2

[9] = system: giant foxtail (Setaria faberi); test: Test G Pre-Emergence Protocol; conditions: Setaria faberi, pre-emergence, 312 h, evaluated after 13 days; for pest or weed control at 15.625 g/ha: 15.625 g ai/ha; for pest or weed control at 15.625 g/ha / pest or weed control at 250 g/ha: read-out: Foxtail, Giant damage rating (100=total damage to plant; 0=no damage to plant); for pest or weed control at 62.5 g/ha: 62.5 g ai/ha, 100=total damage to plant, 0=no damage to plant, read-out: plant damage rating, Foxtail, Giant; for pest or weed control at 250 g/ha: 250 g ai/ha
Outline: as §2

[10] = system: corn (Zea mays); test: Test G Pre-Emergence Protocol; conditions: Zea mays, pre-emergence, 312 h, evaluated after 13 days; for plant injury at 15.625 g/ha: 15.625 g ai/ha; for plant injury at 15.625 g/ha / plant injury at 250 g/ha: read-out: Corn damage rating (100=total damage to plant; 0=no damage to plant); for plant injury at 62.5 g/ha: 62.5 g ai/ha, 100=total damage to plant, 0=no damage to plant, read-out: plant damage rating, Corn; for plant injury at 250 g/ha: 250 g ai/ha
Outline: as §2

[11] = system: redroot pigweed (Amaranthus retroflexus); test: Test G Pre-Emergence Protocol; conditions: Amaranthus retroflexus, pre-emergence, 312 h, evaluated after 13 days; for pest or weed control at 15.625 g/ha: 15.625 g ai/ha; for pest or weed control at 15.625 g/ha / pest or weed control at 250 g/ha: read-out: Pigweed, Redroot damage rating (100=total damage to plant; 0=no damage to plant); for pest or weed control at 62.5 g/ha: 62.5 g ai/ha, 100=total damage to plant, 0=no damage to plant, read-out: plant damage rating, Pigweed, Redroot; for pest or weed control at 250 g/ha: 250 g ai/ha
Outline: as §2

[12] = system: ivy-leaved morning glory (Ipomoea hederacea); test: Test G Pre-Emergence Protocol; conditions: Ipomoea, pre-emergence, 312 h, evaluated after 13 days; for pest or weed control at 15.625 g/ha: 15.625 g ai/ha, read-out: Morning-glory, Ivy-leaved damage rating (100=total damage to plant; 0=no damage to plant); for pest or weed control at 62.5 g/ha: 62.5 g ai/ha, 100=total damage to plant, 0=no damage to plant, read-out: plant damage rating, Morningglory, Ivy-leaved; for pest or weed control at 250 g/ha: 250 g ai/ha, read-out: Morningglory, Ivy-leaved damage rating (100=total damage to plant; 0=no damage to plant)
Outline: as §2

CN1C[C@@H](c2ccc(C(F)(F)F)cc2)[C@H](C(=O)Nc2cc(F)nc(F)c2)C1=O (racemic) [Compound 1515]
0%: pest or weed control at 15.625 g/ha [1] | pest or weed control at 62.5 g/ha [1] | pest or weed control at 250 g/ha [1] | pest or weed control at 15.625 g/ha [2] | pest or weed control at 62.5 g/ha [2] | pest or weed control at 250 g/ha [2] | pest or weed control at 15.625 g/ha [3] | pest or weed control at 62.5 g/ha [3] | pest or weed control at 250 g/ha [3] | plant injury at 15.625 g/ha [4] | plant injury at 62.5 g/ha [4] | plant injury at 250 g/ha [4] | pest or weed control at 15.625 g/ha [5] | pest or weed control at 62.5 g/ha [5] | pest or weed control at 250 g/ha [5] | pest or weed control at 15.625 g/ha [6] | pest or weed control at 62.5 g/ha [6] | pest or weed control at 250 g/ha [6] | pest or weed control at 15.625 g/ha [7] | pest or weed control at 62.5 g/ha [7] | pest or weed control at 250 g/ha [7] | pest or weed control at 15.625 g/ha [8] | pest or weed control at 62.5 g/ha [8] | pest or weed control at 250 g/ha [8] | pest or weed control at 15.625 g/ha [9] | pest or weed control at 62.5 g/ha [9] | pest or weed control at 250 g/ha [9] | plant injury at 15.625 g/ha [10] | plant injury at 62.5 g/ha [10] | plant injury at 250 g/ha [10] | pest or weed control at 15.625 g/ha [11] | pest or weed control at 62.5 g/ha [11] | pest or weed control at 250 g/ha [11] | pest or weed control at 15.625 g/ha [12] | pest or weed control at 62.5 g/ha [12] | pest or weed control at 250 g/ha [12]

CN1C[C@@H](c2ccc(C(F)(F)F)cc2)[C@H](C(=O)Nc2ccnnc2)C1=O (racemic) [Compound 1518]
0%: pest or weed control at 15.625 g/ha [1] | pest or weed control at 62.5 g/ha [1] | pest or weed control at 250 g/ha [1] | pest or weed control at 15.625 g/ha [2] | pest or weed control at 62.5 g/ha [2] | pest or weed control at 250 g/ha [2] | pest or weed control at 15.625 g/ha [3] | pest or weed control at 62.5 g/ha [3] | pest or weed control at 250 g/ha [3] | plant injury at 15.625 g/ha [4] | plant injury at 62.5 g/ha [4] | plant injury at 250 g/ha [4] | pest or weed control at 15.625 g/ha [5] | pest or weed control at 62.5 g/ha [5] | pest or weed control at 250 g/ha [5] | pest or weed control at 15.625 g/ha [6] | pest or weed control at 62.5 g/ha [6] | pest or weed control at 250 g/ha [6] | pest or weed control at 15.625 g/ha [7] | pest or weed control at 62.5 g/ha [7] | pest or weed control at 250 g/ha [7] | pest or weed control at 15.625 g/ha [8] | pest or weed control at 62.5 g/ha [8] | pest or weed control at 250 g/ha [8] | pest or weed control at 15.625 g/ha [9] | pest or weed control at 62.5 g/ha [9] | pest or weed control at 250 g/ha [9] | plant injury at 15.625 g/ha [10] | plant injury at 62.5 g/ha [10] | plant injury at 250 g/ha [10] | pest or weed control at 15.625 g/ha [11] | pest or weed control at 62.5 g/ha [11] | pest or weed control at 250 g/ha [11] | pest or weed control at 15.625 g/ha [12] | pest or weed control at 62.5 g/ha [12] | pest or weed control at 250 g/ha [12]
